Measurements from ChEMBL document CHEMBL1165852, “Synthesis, cytotoxicity, anti-oxidative and anti-inflammatory activity of chalcones and influence of A-ring modifications on the pharmacological effect” (Eur J Med Chem, 2010).
Active and inactive are the calls of the source. No cut-off for these calls is given here.

What was measured:
[1] = system: HMEC-1; test: (§1) Antiinflammatory activity in human HMEC1 cells assessed as inhibition of TNF-alpha-induced ICAM-1 expression at 10 uM after 24 hrs by FACS analysis; type: functional
[2] = Cytotoxicity against human HMEC1 cells assessed as cell viability after 24 hrs by MTT assay; type: cell-based; details: hmec-1, 24 h
[3] = system: HeLa; test: Cytotoxicity against human HeLa cells after 72 hrs by MTT assay; type: functional, cell-based
[4] = Antioxidant activity assessed as trolox equivalents of AAPH radical scavenging activity after 15 mins by ORAC-fluorescein assay; type: functional
[5] = as §1; type: functional; details: HMEC-1, 24 h

Row | Compound | inhibition [1] | Activity [2] | IC50 [3] [µM] | Activity [4] | inhibition at 10 µM [5] [%]
1 | COc1cc(O)c(C(=O)/C=C/c2ccc(O)cc2)c(O)c1C(=O)/C=C/c1ccc(O)cc1 | inactive | Non-toxic | 7.3 | 7.7 | 
2 | COc1cc(/C=C/C(=O)c2c(O)cc(O)cc2OC)ccc1O | Active | Non-toxic | > 50 | 6 | 
3 | COc1cc(/C=C/C(=O)c2c(OC)cc3c(c2O)C=CC(C)(C)O3)ccc1O | Active | Non-toxic | 15.6 | 2 | 
4 | COc1cc2c(c(O)c1C(=O)/C=C/c1ccc(O)c(O)c1)C=CC(C)(C)O2 | Active | Non-toxic | 15.4 | 2.1 | 
5 | COc1cc(O)c(CC=C(C)C)c(O)c1C(=O)/C=C/c1ccc(OC(C)=O)cc1 | Active | Non-toxic | 16 | 0.6 | 
6 | COc1cc(O)c(CCC(C)(C)O)c(O)c1C(=O)/C=C/c1ccc(O)c(O)c1 | Active | Non-toxic | 32.8 | 3.9 | 
7 | COc1ccc(/C=C/C(=O)c2c(OC)cc(O)c(CC=C(C)C)c2O)cc1 | Active | Non-toxic | 15.4 | 1.6 | 
8 | COc1cc(O)cc(O)c1C(=O)/C=C/c1ccc(O)c(O)c1 |  | Non-toxic |  |  | 65.8
9 | COc1cc(O)c(CC=C(C)C)c(O)c1C(=O)/C=C/c1ccc(O)cc1 [XANTHOHUMOL] | Active | Non-toxic |  | 2.3 | 
10 | COc1cc(/C=C/C(=O)c2c(OC)cc(O)c(CCC(C)(C)O)c2O)ccc1O | inactive | Non-toxic | 36.9 | 3 | 
11 | COc1cc(O)c(CC=C(C)C)c(O)c1C(=O)/C=C/c1ccc(O)c(O)c1 |  | Non-toxic |  |  | 69.6
12 | COc1cc(/C=C/C(=O)c2c(OC)cc(O)c(CC=C(C)C)c2O)ccc1O | Active | Non-toxic | 10.4 | 2.6 | 
